In paper PMC12257394, “Design, Synthesis, and Biological Evaluation of Ferrocenyl–Cyclo-(Gly‑L‑Pro) Hybrids Sensitizing Multidrug-Resistant Cancer Cells to Anticancer Agents” (ACS Medicinal Chemistry Letters, 2025):
pIC50: −log10 of the molar value.

What was measured:
Assay type in all cases: cell-based, human
[1] = system: SW620C cells (cisplatin-resistant); assay: Neutral red uptake viability assay, SW620C; conditions: SW620C, 72 h; for survival rate: n = 3, ± SD; for pIC50: read-out: Cytotoxic activity IC50 (95% CI)
Method: (§1) The normal lung fibroblast MRC-5 and colorectal adenocarcinoma SW620 cell lines used in this experiment were purchased from American Type Culture Collection (USA) via LGC […]
described previously.10, 11 All cells were cultured under standard conditions (37°C, 5% CO2, 100% humidity) in high-glucose DMEM supplemented with GlutaMaxTM, HEPES (ThermoFisher Scientific, USA), and 10% fetal bovine serum (EURx, Poland). Cells were routinely tested for potential Mycoplasma contamination using the MycoProbe Mycoplasma Detection kit (R&D System, USA).
(§2) In total, 104 cells in 100 µL of complete medium were plated per well of a 96-well plate and left overnight to allow cells to adhere to the surface. Then, the cells were exposed to a desired concentration of tested compound(s). Stock solutions were prepared in DMSO and used immediately. The final DMSO concentration was constant and nontoxic (0.1% v/v). After 70-h incubation, neutral red was added to the final concentration of 1 mM. After another 2 h, the medium was aspirated, and cells were washed twice with PBS. Dye was released using 100 µL of a solubilizer (1% acetic acid in 50% ethanol) on an orbital shaker (10 min). Absorbance was read at 540 nm using EnVision Multilabel Plate Reader (Perkin Elmer, USA). Results were expressed as % of control. The IC50 parameters were calculated using GraphPad Prism version 10 (GraphPad Software, Boston, Massachusetts USA). […]
IC₅₀ values were determined in […]
(§3) All experiments were performed in triplicate (n = 3).

SW620D cells = assay: Synergy determination (Bliss model, SynergyFinder), SW620D; conditions: drug doxorubicin + additive; for synergy score: Bliss model
Description: (§4) In an ideal setting, the effect of cell exposure to a combination of a chemotherapeutic and an MDR inhibitor should be synergistic. […] The highest synergy scores identified an optimal concentration range where the combination exerted its maximal effect. […] In cisplatin-resistant SW620C cells, the low or lack of synergy observed for most compounds may be due to the additive effects of cisplatin and 4 rather than a true synergistic interaction. […]
(§5) To evaluate the potential interactions between putative ABC inhibitors and anticancer drugs, we utilized the Bliss independence model, as implemented in the SynergyFinder web application.13, 14 Synergy scores and the most synergistic area scores were calculated based on the normalized dose–response matrices. A synergy score below −10 indicates likely […]
(§6) above 10 is indicative of likely synergistic interactions.
(§7) All experiments were performed at least three times, and the data were statistically analyzed

SW620 cells = assay: Neutral red uptake viability assay, SW620; conditions: for survival rate: 72 h, n = 3, ± SD; for pIC50: SW620, 72 h, n = 3, read-out: Cytotoxic activity IC50 (95% CI)
Method: (§8) To evaluate this aspect, we investigated the viability of SW620 colon cancer cells and their multidrug-resistant variants (overexpressing ABCB1, ABCC1, and ABCG2) exposed to 1 and 10 μM 4a–e using a neutral red uptake assay (Table ). In general, compounds 4a–e exerted little or no cytotoxic effect on either SW620 or multidrug-resistant sublines even at 10 μM, with the remarkable exception of SW620C (cisplatin-selected variant of SW620) cells, which turned out to be relatively susceptible toward ferrocenyl 4a–c. […] This trend may reflect steric or electronic contributions to cellular uptake or interaction with intracellular targets. […] However, since E/Z isomeric data are currently available only for compound 4c, this hypothesis requires validation. To quantify this effect, IC50 values were determined (Table ). […]
as §1
(§9) Standards. Multidrug-resistant variants of SW620 cells were developed in our laboratory as described previously.10, 11 All cells were cultured under standard conditions (37°C, 5% CO2, 100% humidity) in high-glucose DMEM supplemented with GlutaMaxTM, HEPES (ThermoFisher Scientific, USA), and 10% fetal bovine serum (EURx, Poland). Cells were routinely tested for potential Mycoplasma contamination using the MycoProbe Mycoplasma Detection kit (R&D System, USA).
as §2, §3

[2] = system: ABCB1-overexpressing SW620V cells; assay: MDR reversal assay (ERP), SW620V; conditions: for ERP value, vincristine + compound: SW620V (xlsx); for ERP = IC50(drug)MDR/IC50(drug+4)MDR: vincristine, SW620V
Description: (§10) We investigated the potency of 4a–e to inhibit ABC transporters (ABCB1, ABCC1, and ABCG2) by determining their enhancement of reversal potency (ERP) values. ERP represents fold changes in the IC50 values of anticancer drugs in multidrug-resistant cancer sublines (ABCB1-overexpressing SW620D, SW620E, and SW620V; ABCC1-overexpressing SW620M; ABCG2-overexpressing SW620C and SW620Mito) exposed to a combination of the investigated compounds and anticancer agents at equimolar concentrations, compared with values obtained with drugs alone (Tables S2 and S3 and Figure ).
as §9
(§11) In total, 104 cells in 100 µL of complete medium were plated per well of a 96-well plate and left overnight to allow cells to adhere to the surface. Then, the cells were exposed to a desired concentration of tested compound(s). Stock solutions were prepared in DMSO and used immediately. The final DMSO concentration was constant and nontoxic (0.1% v/v). After 70-h incubation, neutral red was added to the final concentration of 1 mM. After another 2 h, the medium was aspirated, and cells were washed twice with PBS. Dye was released using 100 µL of a solubilizer (1% acetic acid in 50% ethanol) on an orbital shaker (10 min). Absorbance was read at 540 nm using EnVision Multilabel Plate Reader (Perkin Elmer, USA). Results were expressed as % of control. The IC50 parameters were calculated using GraphPad Prism version 10 (GraphPad Software, Boston, Massachusetts USA).
(§12) The enhancement of reversal potency (ERP) value determination
(§13) For MDR reversal assays, cytotoxic agents were co-administered with compounds 4a–4e at equimolar concentrations in a range of 10 nM to 100 µM. IC₅₀ values were determined in ABCB1-overexpressing SW620 cell line variants. The enhancement of reversal potency (ERP) was calculated using the following formula: ERP = IC₅₀(drug)MDR / IC₅₀(drug + compound)MDR. All experiments were performed in triplicate (n = 3).

[3] = system: ABCG2-overexpressing SW620C cells; assay: MDR reversal assay (ERP), SW620C; conditions: for ERP value, cisplatin + compound: SW620C (xlsx); for ERP = IC50(drug)MDR/IC50(drug+4)MDR: cisplatin, SW620C
Description: as §10, §9, §11, §12, §13

SW620Mito cells = assay: Synergy determination (Bliss model, SynergyFinder), SW620Mito; conditions: drug mitoxantrone + additive, SW602Mito; for synergy score: Bliss model
Description: as §4, §5, §6, §7

[4] = system: ABCB1-overexpressing SW620D cells; assay: MDR reversal assay (ERP), SW620D; conditions: for ERP value, doxorubicin + compound: SW620D (xlsx); for ERP = IC50(drug)MDR/IC50(drug+4)MDR: doxorubicin, SW620D
Description: as §10, §9, §11, §12, §13

[5] = system: ABCG2-overexpressing SW620Mito cells; assay: MDR reversal assay (ERP), SW620Mito; conditions: for ERP value, mitoxantrone + compound: SW620Mito (xlsx); for ERP = IC50(drug)MDR/IC50(drug+4)MDR: mitoxantrone, SW620Mito
Description: as §10, §9, §11, §12, §13

[6] = system: SW620E cells (etoposide-resistant); assay: Neutral red uptake viability assay, SW620E; conditions: 72 h; for survival rate: n = 3, ± SD; for pIC50: n = 3, read-out: Cytotoxic activity IC50 (95% CI)
Method: as §8, §1, §9, §2, §3

Row | SMILES | survival rate ([1]; 1 μM) [%] | pIC50 ([1]; n = 3) | most synergistic area score (SW620D cells) | synergy score (SW620D cells) | survival rate (SW620 cells; SW620, 1 μM) [%] | survival rate (SW620 cells; SW620, 10 μM) [%] | pIC50 (SW620 cells) | ERP value, vincristine + compound [2] | ERP = IC50(drug)MDR/IC50(drug+4)MDR [2] | ERP value, cisplatin + compound [3] | ERP = IC50(drug)MDR/IC50(drug+4)MDR [3] | most synergistic area score (SW620Mito cells) | synergy score (SW620Mito cells) | ERP value, doxorubicin + compound [4] | ERP = IC50(drug)MDR/IC50(drug+4)MDR [4] | ERP value, mitoxantrone + compound [5] | ERP = IC50(drug)MDR/IC50(drug+4)MDR [5] | survival rate ([6]; 1 μM) [%] | survival rate ([6]; 10 μM) [%] | survival rate ([1]; 10 μM) [%] | other results
1 | O=C1N/C(=C\c2ccc(-[c-]3cccc3)cc2)C(=O)N2CCC[C@@H]12.[Fe+2].c1cc[cH-]c1 [(S,Z)-4d] | 96 ± 3.6 | < 4.00 | 17.81 | 7.37 | 97 ± 3.0 | 97 ± 2.1 | < 4.00 | 12.7 | 12.7 | 2.58 | 2.58 | 27.66 | 17.05 | 2.86 | 2.86 | 10.3 | 10.3 | 97 ± 0.8 | 94 ± 2.5 |  | pIC50 [6]: < 4.00
2 | O=C1N/C(=C\c2ccccc2-[c-]2cccc2)C(=O)N2CCC[C@@H]12.[Fe+2].c1cc[cH-]c1 [(S,Z)-4b] | 83 ± 4.2 | 4.92 | 11.62 | 3.96 | 91 ± 8.0 | 84 ± 13 | < 4.00 | 9.57 | 9.57 | 4.53 | 4.53 | 19.63 | 11.11 | 2.34 | 2.34 | 9.11 | 9.11 | 93 ± 1.2 | 99 ± 0.8 | 57 ± 1.1 | Cytotoxic activity IC50 (95% CI) ([1]; n = 3): low-micromolar; pIC50 [6]: < 4.00
3 | O=C1N/C(=C\c2ccccc2)C(=O)N2CCC[C@@H]12 [(S,Z)-4e] | 95 ± 2.1 |  | 0.00 | –8.70 | 94 ± 5.4 | 92 ± 5.0 |  | 1.27 | 1.27 | 0.70 | 0.70 | 0.00 | –3.17 | 0.70 | 0.70 | 1.01 | 1.01 | 94 ± 1.9 | 96 ± 4.4 | 95 ± 1.0 | 
4 | O=C1N/C(=C/c2ccccc2)C(=O)N2CCC[C@@H]12 [(S,E)-4e] | 96 ± 0.8 |  | 0.00 | –6.63 | 96 ± 3.4 | 96 ± 2.2 |  | 1.34 | 1.37 | 1.98 | 1.98 | 4.35 | –0.12 | 0.77 | 0.77 | 0.82 | 0.82 | 96 ± 2.5 | 99 ± 0.9 | 95 ± 2.5 | 
